Results: EPA's ToxValDB 9.5 (doi:10.2903/j.efsa.2013.3181)
Values after ≈ are worked out from the molar mass of the structure shown.

Legend:
Typhlodromus pyri = assay: LR50; higher = less toxic; conditions: chronic/long-term; duration: 7 days; mortality
Aphidius rhopalosiphi = assay: LR50; higher = less toxic; conditions: acute; duration: 48 hours; mortality
Mus musculus = conditions: acute; oral; F; mortality
Apis mellifera = conditions: acute; duration: 48 hours; oral; unspecified; mortality
Lepomis macrochirus = conditions: acute; duration: 96 hours; mortality
Bibionidae = conditions: chronic/long-term; duration: 28 days; no effects
Anas platyrhynchos = conditions: reproductive
Canidae = conditions: chronic; duration: 1 years; oral; Dog Other; clinical signs
Daphnia magna = conditions: chronic/long-term; duration: 21 days; reproduction
Pimephales promelas = conditions: chronic/long-term; duration: 28 days; body weight
Colinus virginianus = conditions: for LD50: acute, oral, mortality

CC(C)C1CCC(Cc2ccc(Cl)cc2)C1(O)Cn1cncn1 (stereo not drawn) [Ipconazole]
LR50 (Typhlodromus pyri): 17.4 g/ha | LR50 (Aphidius rhopalosiphi): 35.1 g/ha | LD50 (Mus musculus): 468 mg/kg | LD50 (Rattus norvegicus; acute, oral, F, mortality): > 2000 mg/kg | NOAEL (Rattus norvegicus; developmental, development): 3 mg/kg-day | NOAEL (Rattus norvegicus; reproduction developmental, body weight): 8 mg/kg-day | LD50 (Apis mellifera): > 100 µg/piece | LC50 (Lepomis macrochirus): 1.3 µg/mL (≈ 3.89 µM) | NOEC (Bibionidae): 3.52 mg/L | NOEL (Anas platyrhynchos): 27.1 mg/kg-day | NOAEL (Canidae): 1.5 mg/kg-day | NOEC (Daphnia magna): 10.9 µg/L | LC50 (Tagia sp.; acute, duration: 14 days, mortality): 597 mg/kg | NOEC (Tagia sp.; chronic/long-term, duration: 8 weeks, reproduction): 0.78 mg/kg | NOEC (Pimephales promelas): 0.44 µg/L | LD50 (Colinus virginianus; diet): > 300 mg/kg-day | LD50 (Colinus virginianus): 962 mg/kg | NOEL (Colinus virginianus; reproduction developmental): 4.3 mg/kg-day
